Results as given in patent publication US9725465B2, “Biaryl acetamide compounds and methods of use thereof” (Ambit Biosciences Corporation, priority 2013, dated 2017).
Counter-ions that a name gives are not always drawn.

What was measured:
[1] = target: FLT3 kinase (Homo sapiens (Human), UniProt P36888); assay: Competition binding assay (Kd), FLT3; conditions: competition binding assay
[2] = target: KIT kinase (Homo sapiens (Human), UniProt P10721); assay: Competition binding assay (Kd), KIT; conditions: competition binding assay
In short: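 Kinase, as T7 phage fusion or HEK-293-expressed DNA-tagged protein, competed off immobilised ligand beads by test compound (eleven-point threefold dilutions, from 100× DMSO stocks). Eluted kinase quantified by qPCR to derive Kd; DMSO used as control.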

[3] = target: FLT3-ITD (Homo sapiens (Human), UniProt P36888, INS600HVDFREYEYD); assay: pFLT3 MSD assay, Ba/F3 FLT3-ITD; assay type: cell-based; conditions: Ba/F3 FLT3-ITD cells, 2 hours, read-out: BaF3-FLT3-ITD pFlt3 IC50
FLT3-ITD, sequence (P36888 other isoform, or with tags, fused parts or gaps limits assumed, stated change not applied): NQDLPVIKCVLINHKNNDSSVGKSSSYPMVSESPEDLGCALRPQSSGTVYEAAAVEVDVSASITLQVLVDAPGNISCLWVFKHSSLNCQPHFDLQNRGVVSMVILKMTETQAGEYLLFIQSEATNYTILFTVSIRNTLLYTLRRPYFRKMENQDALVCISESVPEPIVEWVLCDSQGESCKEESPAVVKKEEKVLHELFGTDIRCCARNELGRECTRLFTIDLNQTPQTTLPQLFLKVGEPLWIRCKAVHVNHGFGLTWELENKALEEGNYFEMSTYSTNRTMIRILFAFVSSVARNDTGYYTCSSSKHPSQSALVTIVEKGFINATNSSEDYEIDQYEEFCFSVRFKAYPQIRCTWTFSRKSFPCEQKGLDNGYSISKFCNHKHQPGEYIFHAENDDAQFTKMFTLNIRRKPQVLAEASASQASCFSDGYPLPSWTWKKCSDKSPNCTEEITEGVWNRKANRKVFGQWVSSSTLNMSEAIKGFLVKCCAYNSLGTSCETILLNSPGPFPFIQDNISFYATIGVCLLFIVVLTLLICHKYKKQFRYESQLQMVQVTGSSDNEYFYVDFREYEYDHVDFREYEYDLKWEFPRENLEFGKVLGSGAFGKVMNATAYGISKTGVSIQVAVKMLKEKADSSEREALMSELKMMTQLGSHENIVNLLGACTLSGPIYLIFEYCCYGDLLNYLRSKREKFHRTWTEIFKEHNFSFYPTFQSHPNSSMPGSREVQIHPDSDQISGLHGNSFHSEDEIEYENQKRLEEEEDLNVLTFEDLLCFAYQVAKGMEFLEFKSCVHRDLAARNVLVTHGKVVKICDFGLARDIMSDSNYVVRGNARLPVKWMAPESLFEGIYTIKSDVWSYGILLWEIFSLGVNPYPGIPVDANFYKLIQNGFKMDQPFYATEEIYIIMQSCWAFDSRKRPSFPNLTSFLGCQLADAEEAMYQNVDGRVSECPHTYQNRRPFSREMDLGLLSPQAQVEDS

FLT3 kinase, sequence (P36888 27-993): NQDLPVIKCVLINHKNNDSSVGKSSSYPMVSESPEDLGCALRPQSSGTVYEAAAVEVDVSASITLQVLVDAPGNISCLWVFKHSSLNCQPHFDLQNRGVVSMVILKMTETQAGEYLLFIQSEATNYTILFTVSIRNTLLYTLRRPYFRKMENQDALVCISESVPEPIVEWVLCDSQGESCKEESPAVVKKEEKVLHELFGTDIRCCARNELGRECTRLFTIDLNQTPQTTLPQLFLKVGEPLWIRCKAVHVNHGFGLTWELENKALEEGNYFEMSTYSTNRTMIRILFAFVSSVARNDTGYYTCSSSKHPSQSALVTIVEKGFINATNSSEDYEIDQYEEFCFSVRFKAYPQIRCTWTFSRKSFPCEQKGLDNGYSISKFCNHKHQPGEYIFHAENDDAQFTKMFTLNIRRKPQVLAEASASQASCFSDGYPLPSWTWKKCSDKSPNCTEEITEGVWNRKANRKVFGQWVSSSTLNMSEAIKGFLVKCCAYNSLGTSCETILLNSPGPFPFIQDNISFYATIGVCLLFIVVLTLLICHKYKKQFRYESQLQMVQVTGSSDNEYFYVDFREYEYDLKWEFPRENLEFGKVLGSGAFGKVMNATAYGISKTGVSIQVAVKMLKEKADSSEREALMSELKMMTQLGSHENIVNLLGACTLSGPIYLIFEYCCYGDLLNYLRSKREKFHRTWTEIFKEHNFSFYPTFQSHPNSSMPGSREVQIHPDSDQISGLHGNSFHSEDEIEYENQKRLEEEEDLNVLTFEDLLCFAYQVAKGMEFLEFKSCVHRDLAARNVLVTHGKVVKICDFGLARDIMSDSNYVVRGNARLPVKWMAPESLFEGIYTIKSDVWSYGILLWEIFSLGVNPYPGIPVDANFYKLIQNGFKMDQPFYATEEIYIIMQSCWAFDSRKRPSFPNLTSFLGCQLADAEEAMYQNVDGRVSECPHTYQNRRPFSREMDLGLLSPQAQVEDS
KIT kinase, sequence (P10721 26-976): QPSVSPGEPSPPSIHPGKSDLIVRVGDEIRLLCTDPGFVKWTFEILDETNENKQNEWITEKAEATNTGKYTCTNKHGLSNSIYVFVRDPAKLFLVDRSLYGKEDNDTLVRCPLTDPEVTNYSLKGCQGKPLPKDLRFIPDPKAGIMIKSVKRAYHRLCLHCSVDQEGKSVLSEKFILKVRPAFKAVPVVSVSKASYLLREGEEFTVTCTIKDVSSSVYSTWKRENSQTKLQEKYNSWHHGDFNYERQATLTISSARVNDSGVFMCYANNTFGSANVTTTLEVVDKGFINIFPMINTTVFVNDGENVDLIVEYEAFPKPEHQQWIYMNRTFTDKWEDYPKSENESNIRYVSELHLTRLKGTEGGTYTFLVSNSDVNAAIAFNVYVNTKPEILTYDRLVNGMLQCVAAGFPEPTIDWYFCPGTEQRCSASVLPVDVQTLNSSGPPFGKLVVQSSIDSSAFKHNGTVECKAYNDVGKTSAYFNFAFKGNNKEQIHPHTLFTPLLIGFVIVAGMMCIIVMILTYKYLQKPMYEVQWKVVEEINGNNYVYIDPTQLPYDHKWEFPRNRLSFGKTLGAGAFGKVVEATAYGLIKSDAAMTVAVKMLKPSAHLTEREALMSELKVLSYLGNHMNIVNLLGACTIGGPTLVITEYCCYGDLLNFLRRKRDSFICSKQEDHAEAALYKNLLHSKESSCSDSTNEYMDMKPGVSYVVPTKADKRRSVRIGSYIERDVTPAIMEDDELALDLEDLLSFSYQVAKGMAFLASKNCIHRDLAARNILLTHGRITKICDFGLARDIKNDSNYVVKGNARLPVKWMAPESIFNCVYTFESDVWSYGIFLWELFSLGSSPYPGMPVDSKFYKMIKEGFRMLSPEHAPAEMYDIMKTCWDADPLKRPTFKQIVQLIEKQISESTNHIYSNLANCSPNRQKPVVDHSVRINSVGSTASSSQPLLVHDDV

Compound | Kd [1] [nM] | Kd [2] [nM] | IC50 [3] [nM]
COc1ccc2cc(-c3ccc(CC(=O)Nc4cc(C5(C(F)(F)F)CC5)on4)cc3)cnc2c1 [Example 2, 2-(4-(7-methoxyquinolin-3-yl)phenyl)-N-(5-(1-(trifluoromethyl)cyclopropyl)isoxazol-3-yl)acetamide] | < 5 | < 5 | < 10
O=C(Cc1ccc(-c2cnc3[nH]ccc3n2)cc1)Nc1cc(C2(C(F)(F)F)CC2)on1 [Example 3, 2-(4-(5H-pyrrolo[2,3-b]pyrazin-2-yl)phenyl)-N-(5-(1-(trifluoromethyl)cyclopropyl)isoxazol-3-yl)acetamide] | < 5 | < 5 | < 10
COc1cc2ncc(-c3ccc(CC(=O)Nc4cc(C5(C(F)(F)F)CC5)on4)c(F)c3)nc2cc1OC [Example 4, 2-(4-(6,7-dimethoxyquinoxalin-2-yl)-2-fluorophenyl)-N-(5-(1-(trifluoromethyl)cyclopropyl)isoxazol-3-yl)acetamide] | < 5 | < 5 | < 10
COc1cc2cc(-c3ccc(CC(=O)Nc4cc(C5(C(F)(F)F)CC5)on4)cc3)cnc2cc1OC [Example 5, 2-(4-(6,7-dimethoxyquinolin-3-yl)phenyl)-N-(5-(1-(trifluoromethyl)cyclopropyl)isoxazol-3-yl)acetamide] | < 5 | < 5 | < 10
COc1cc2ncc(-c3ccc(CC(=O)Nc4cc(C(C)(C)C)on4)cc3)nc2cc1OC [Example 6, N-(5-(tert-butyl)isoxazol-3-yl)-2-(4-(6,7-dimethoxyquinoxalin-2-yl)phenyl)acetamide] | < 5 | < 5 | < 10
COc1cc2ncc(-c3ccc(CC(=O)Nc4cc(C(C)(C)C(F)(F)F)on4)cc3)nc2cc1OC [Example 8, 2-(4-(6,7-dimethoxyquinoxalin-2-yl)phenyl)-N-(5-(1,1,1-trifluoro-2-methylpropan-2-yl)isoxazol-3-yl)acetamide] | < 5 | < 5 | < 10
O=C(Cc1ccc(-c2cnc3[nH]ncc3c2)cc1)Nc1cc(C2(C(F)(F)F)CC2)on1 [Example 15, 2-(4-(1H-pyrazolo[3,4-b]pyridin-5-yl)phenyl)-N-(5-(1-(trifluoromethyl)cyclopropyl)isoxazol-3-yl)acetamide] | – | < 5 | < 10
O=C(Cc1ccc(-c2cnc3[nH]ccc3c2)cc1)Nc1cc(C2(C(F)(F)F)CC2)on1 [Example 18, 2-(4-(1H-pyrrolo[2,3-b]pyridin-5-yl)phenyl)-N-(5-(1-(trifluoromethyl)cyclopropyl)isoxazol-3-yl)acetamide] | – | < 5 | < 10
CN(C)C(=O)c1n[nH]c2ncc(-c3ccc(CC(=O)Nc4cc(C(C)(C)C)on4)cc3)cc12 [Example 45, 5-(4-(2-((5-(tert-butyl)isoxazol-3-yl)amino)-2-oxoethyl)phenyl)-N,N-dimethyl-1H-pyrazolo[3,4-b]pyridine-3-carboxamide] | – | – | < 10
COc1cc2ncc(-c3ccc(CC(=O)Nc4cc(C(C)(C)C(F)(F)F)on4)c(F)c3)nc2cc1OC [Example 46, 2-(4-(6,7-dimethoxyquinoxalin-2-yl)-2-fluorophenyl)-N-(5-(1,1,1-trifluoro-2-methylpropan-2-yl)isoxazol-3-yl)acetamide] | < 5 | 5 to 20 | < 10
COCCOc1n[nH]c2ncc(-c3ccc(CC(=O)Nc4cc(C(C)(C)C(F)(F)F)on4)cc3)cc12 [Example 47, 2-(4-(3-(2-methoxyethoxy)-1H-pyrazolo[3,4-b]pyridin-5-yl)phenyl)-N-(5-(1,1,1-trifluoro-2-methylpropan-2-yl)isoxazol-3-yl)acetamide] | – | – | < 10
CC(C)(c1cc(NC(=O)Cc2ccc(-c3cnc4[nH]nc(OC5CCNCC5)c4c3)cc2)no1)C(F)(F)F [Example 48, 2-(4-(3-(piperidin-4-yloxy)-1H-pyrazolo[3,4-b]pyridin-5-yl)phenyl)-N-(5-(1,1,1-trifluoro-2-methylpropan-2-yl)isoxazol-3-yl)acetamide formate salt] | – | – | < 10
CN(C)C(=O)c1cc2cc(-c3ccc(CC(=O)Nc4cc(C(C)(C)C)on4)cc3)cnc2[nH]1 [Example 49, 5-(4-(2-((5-(tert-butyl)isoxazol-3-yl)amino)-2-oxoethyl)phenyl)-N,N-dimethyl-1H-pyrrolo[2,3-b]pyridine-2-carboxamide] | – | – | < 10
CC(C)(C)c1cc(NC(=O)Cc2ccc(-c3cnc4[nH]c(CO)cc4c3)cc2)no1 [Example 50, N-(5-(tert-butyl)isoxazol-3-yl)-2-(4-(2-(hydroxymethyl)-1H-pyrrolo[2,3-b]pyridin-5-yl)phenyl)acetamide] | – | – | < 10
Cc1n[nH]c2ncc(-c3ccc(CC(=O)Nc4cc(C(C)(C)C)on4)c(F)c3)cc12 [Example 51, N-(5-(tert-butyl)isoxazol-3-yl)-2-(2-fluoro-4-(3-methyl-1H-pyrazolo[3,4-b]pyridin-5-yl)phenyl)acetamide] | – | – | < 10
CN(C)Cc1cc2cc(-c3ccc(CC(=O)Nc4cc(C(C)(C)C)on4)cc3)cnc2[nH]1 [Example 52, N-(5-(tert-butyl)isoxazol-3-yl)-2-(4-(2-((dimethylamino)methyl)-1H-pyrrolo[2,3-b]pyridin-5-yl)phenyl)acetamide] | – | – | < 10
COc1n[nH]c2ncc(-c3ccc(CC(=O)Nc4cc(C5(C(F)(F)F)CC5)on4)c(F)c3)cc12 [Example 53, 2-(2-fluoro-4-(3-methoxy-1H-pyrazolo[3,4-b]pyridin-5-yl)phenyl)-N-(5-(1-(trifluoromethyl)cyclopropyl)isoxazol-3-yl)acetamide] | – | – | < 10
CNCc1c[nH]c2ncc(-c3ccc(CC(=O)Nc4cc(C(C)(C)C)on4)cc3)cc12 [Example 54, N-(5-(tert-butyl)isoxazol-3-yl)-2-(4-(3-((methylamino)methyl)-1H-pyrrolo[2,3-b]pyridin-5-yl)phenyl)acetamide] | – | – | 10 to 20
CC(C)(C)c1cc(NC(=O)Cc2ccc(-c3cnc4[nH]nc(CO)c4c3)cc2F)no1 [Example 55, N-(5-(tert-butyl)isoxazol-3-yl)-2-(2-fluoro-4-(3-(hydroxymethyl)-1H-pyrazolo[3,4-b]pyridin-5-yl)phenyl)acetamide] | – | – | < 10
O=C(Cc1ccc(-c2cnc3[nH]ncc3c2)cc1F)Nc1cc(C2(C(F)(F)F)CCC2)on1 [Example 56, 2-(2-Fluoro-4-(1H-pyrazolo[3,4-b]pyridin-5-yl)phenyl)-N-(5-(1-(trifluoromethyl)cyclobutyl)isoxazol-3-yl)acetamide] | – | – | < 10

Second part, the molecule after the results:

Kd [1] [nM] | Kd [2] [nM] | IC50 [3] [nM] | Compound
– | – | < 10 | CNCc1n[nH]c2ncc(-c3ccc(CC(=O)Nc4cc(C(C)(C)C)on4)c(F)c3)cc12 [Example 57, N-(5-(tert-butyl)isoxazol-3-yl)-2-(2-fluoro-4-(3-((methylamino)methyl)-1H-pyrazolo[3,4-b]pyridin-5-yl)phenyl)acetamide]
– | – | < 10 | CN(C)Cc1n[nH]c2ncc(-c3ccc(CC(=O)Nc4cc(C(C)(C)C)on4)c(F)c3)cc12 [Example 58, N-(5-(tert-butyl)isoxazol-3-yl)-2-(4-(3-((dimethylamino)methyl)-1H-pyrazolo[3,4-b]pyridin-5-yl)-2-fluorophenyl)acetamide]
– | – | < 10 | CN(C)Cc1c[nH]c2ncc(-c3ccc(CC(=O)Nc4cc(C(C)(C)C)on4)cc3)cc12 [Example 59, N-(5-(tert-butyl)isoxazol-3-yl)-2-(4-(3-((dimethylamino)methyl)-1H-pyrrolo[2,3-b]pyridin-5-yl)phenyl)acetamide formate salt]
– | – | < 10 | CC(C)(C)c1cc(NC(=O)Cc2ccc(-c3cnc4[nH]cc(CO)c4c3)cc2)no1 [Example 60, N-(5-(tert-butyl)isoxazol-3-yl)-2-(4-(3-(hydroxymethyl)-1H-pyrrolo[2,3-b]pyridin-5-yl)phenyl)acetamide]
– | – | < 10 | CN(C)c1n[nH]c2ncc(-c3ccc(CC(=O)Nc4cc(C5(C(F)(F)F)CC5)on4)c(F)c3)cc12 [Example 61, 2-(4-(3-(dimethylamino)-1H-pyrazolo[3,4-b]pyridin-5-yl)-2-fluorophenyl)-N-(5-(1-(trifluoromethyl)cyclopropyl)isoxazol-3-yl)acetamide]
< 5 | < 5 | < 10 | CC(O)c1n[nH]c2ncc(-c3ccc(CC(=O)Nc4cc(C(C)(C)C)on4)c(F)c3)cc12 (stereo not shown) [Example 62, N-(5-(tert-butyl)isoxazol-3-yl)-2-(2-fluoro-4-(3-(1-hydroxyethyl)-1H-pyrazolo[3,4-b]pyridin-5-yl)phenyl)acetamide]
– | – | < 10 | CC(C)(C)c1cc(NC(=O)Cc2ccc(-c3cnc4[nH]ccc4c3)cc2)on1 [Example 71, 2-(4-(1H-pyrrolo[2,3-b]pyridin-5-yl)phenyl)-N-(3-(tert-butyl)isoxazol-5-yl)acetamide]
– | – | < 10 | COc1cc2ncc(-c3ccc(CC(=O)Nc4cc(C5(C(F)(F)F)CC5)no4)cc3)nc2cc1OC [Example 72, 2-(4-(6,7-dimethoxyquinoxalin-2-yl)phenyl)-N-(3-(1-(trifluoromethyl)cyclopropyl)isoxazol-5-yl)acetamide]
– | – | < 10 | COc1cc2ncc(-c3ccc(CC(=O)Nc4cc(C(C)(C)C)no4)cc3)nc2cc1OC [Example 73, N-(3-(tert-butyl)isoxazol-5-yl)-2-(4-(6,7-dimethoxyquinoxalin-2-yl)phenyl)acetamide]
– | 5 to 20 | < 10 | COc1cc2nc(-c3ccc(CC(=O)Nc4cc(C5(C(F)(F)F)CC5)on4)c(F)c3)cnc2cc1OC1CNC1 [Example 89, 2-(4-(6-(azetidin-3-yloxy)-7-methoxyquinoxalin-2-yl)-2-fluorophenyl)-N-(5-(1-(trifluoromethyl)cyclopropyl)isoxazol-3-yl)acetamide]
